This test has as its target human TSP1 (Homo sapiens, UniProt P07996). Nature of the test: Cell adhesion inhibition assay (HUVEC adhesion to TSP1-coated plate). In kind it is cell-based. As for the experimental part: As referred to herein, the TSP1 inhibitory activity refers to the activity to inhibit one or more effects of TSP1, including angiostatic effect. The TSP1 inhibitory activity is measured by a cell adhesion inhibition assay using human TSP1 and vascular endothelial cells as described hereinbelow in the Examples section. In this assay, when the 50% inhibitory concentration (IC5O) of a test substance is 200 nM or less, the test substance is determined to have TSP1 inhibitory activity.
(Test Example 1) Cell Adhesion Inhibition Assay
I. Materials and Reagents
96 well Non-treated White with clear bottom (Coster, 3632)
BrightMax adhesive sealing films (EXCEL Scientific, WT50)
Proteosave®SS 15 mL (Sumitomo Bakelite, MS-52150)
Thrombospondin human platelet (Calbiochem, 605225)
EGM-2 MV (Lonza, CC-3202): for HUVEC passaging
Collagen coated dish (IWAKI, 4020-010): for HUVEC passaging
Lipidure®-BL802 (NOF Corporation), 5% solution
Albumin solution (35%) fraction V from Bovine (Sigma, A7979)
CellTiter-Glo (Promega, G7572)
Thrombospondin 1 vial (25 μg) was dissolved in TBS (+2 mM CaCl2; the same shall apply hereunder) to make a 200 μg/mL solution, which was diluted with TBS to a concentration of 10 μg/mL in Proteosave® 15 mL tube. The 10 μg/mL solution was dispensed into a 96 well plate at a volume of 50 μL/well (no reservoir was used since the protein easily adsorbs on it), and the plate was left to stand at 4° C. overnight.
Lipidure® was diluted 10-fold with TBS to make a 0.5% solution. After a buffer was discarded from the plate that had been coated at the step of <Plate coat> as described above, the 0.5% solution was dispensed into all wells to be used at a volume of 100 μL/well, and the plate was left to stand at room temperature for 1 hour.
A 0.2 μM solution of each sample was prepared using a dilution buffer (DMEM+0.5% BSA). 2 μL of the 0.2 μM solution was diluted with 500 μL, of dilution buffer to prepare a diluted sample. As a vehicle control, DMSO was diluted in the same way as the samples.
A blocking solution was discarded from the plate that had been treated at the step of <Plate blocking> as described above, and the plate was washed three times with 150 μL/well of TBS. The washing solution used for the third washing was completely sucked out by an aspirator, and the diluted sample was dispensed into the plate at a volume of 50 μL/well. Then, the plate was left to stand at room temperature for 15 to 30 minutes.
To maintain HUVECs, EGM2-MV and a collagen coated dish were used (the cells were ceased to be used after 10th or 1 lth passage since the cell proliferation rate declined at this stage). The cells were dispersed with 0.05% Trypsin/EDTA, harvested in DMEM/0.5% BSA, and centrifuged at 1000 rpm for 3 minutes. After removal of supernatant, the cells were washed once with a DMEM buffer. The cells were resuspended in a DMEM buffer, counted for cell number, and diluted to 10000 cells/50 μL. The cell suspension was dispensed at a volume of 50 μL/well into the plate into which the sample had been dispensed, mixed gently, and incubated at 37° C. for 2.5 hours.
After cell adhesion was confirmed, the culture medium was completely removed by an aspirator, and 100 μL/well of DMEM/0.5% BSA was gently dispensed. Then, DMEM/0.5% BSA was completely removed by an aspirator, and 50 μL/well of DMEM/0.5% BSA was dispensed. After a white seal was applied to the bottom of the plate, 50 μL/well of CellTiter-Glo® was dispensed, and the solution was stirred for 2 minutes and left to stand at room temperature for 8 minutes. […] was detected using EnVision Xcite Multilabel Reader (produced by Perkin Elmer).
On the basis of the measured fluorescence values, the IC50 values (nM) of the different macrocyclic polypeptides for inhibition of cell adhesion were calculated.

The mark [1] stands for this setting: HUVEC adhesion to human platelet thrombospondin-coated plate, 2.5 hours, CellTiter-Glo, read-out: Cell adhesion IC50.

Where two headings read alike, the source gives them in different places. Positions of bridges follow the written chain, without caps; N, C: chain ends. Non-standard residues stand in square brackets, D forms with d. Residues, ends and D or L forms follow the SMILES beside them. Phe(4-CH2NH2) = NCc1ccc(C[C@H](N)C(=O)O)cc1; 2Nal = N[C@@H](Cc1ccc2ccccc2c1)C(=O)O; Met(O2) = CS(=O)(=O)CC[C@H](N)C(=O)O; His(π-Me) = Cn1cncc1C[C@H](N)C(=O)O; hCit = NC(=O)NCCCC[C@H](N)C(=O)O; hPhe = N[C@@H](CCc1ccccc1)C(=O)O; Phg = N[C@H](C(=O)O)c1ccccc1; Tle = CC(C)(C)[C@H](N)C(=O)O; hCys = N[C@@H](CCS)C(=O)O; Nle = CCCC[C@H](N)C(=O)O

The values below come from patent publication US11149066B2, “Thrombospondin 1-binding peptide” (DAIICHI SANKYO COMPANY, LIMITED, priority 2016, dated 2021).

Chain of human TSP1 (P07996 19-1170 limits assumed): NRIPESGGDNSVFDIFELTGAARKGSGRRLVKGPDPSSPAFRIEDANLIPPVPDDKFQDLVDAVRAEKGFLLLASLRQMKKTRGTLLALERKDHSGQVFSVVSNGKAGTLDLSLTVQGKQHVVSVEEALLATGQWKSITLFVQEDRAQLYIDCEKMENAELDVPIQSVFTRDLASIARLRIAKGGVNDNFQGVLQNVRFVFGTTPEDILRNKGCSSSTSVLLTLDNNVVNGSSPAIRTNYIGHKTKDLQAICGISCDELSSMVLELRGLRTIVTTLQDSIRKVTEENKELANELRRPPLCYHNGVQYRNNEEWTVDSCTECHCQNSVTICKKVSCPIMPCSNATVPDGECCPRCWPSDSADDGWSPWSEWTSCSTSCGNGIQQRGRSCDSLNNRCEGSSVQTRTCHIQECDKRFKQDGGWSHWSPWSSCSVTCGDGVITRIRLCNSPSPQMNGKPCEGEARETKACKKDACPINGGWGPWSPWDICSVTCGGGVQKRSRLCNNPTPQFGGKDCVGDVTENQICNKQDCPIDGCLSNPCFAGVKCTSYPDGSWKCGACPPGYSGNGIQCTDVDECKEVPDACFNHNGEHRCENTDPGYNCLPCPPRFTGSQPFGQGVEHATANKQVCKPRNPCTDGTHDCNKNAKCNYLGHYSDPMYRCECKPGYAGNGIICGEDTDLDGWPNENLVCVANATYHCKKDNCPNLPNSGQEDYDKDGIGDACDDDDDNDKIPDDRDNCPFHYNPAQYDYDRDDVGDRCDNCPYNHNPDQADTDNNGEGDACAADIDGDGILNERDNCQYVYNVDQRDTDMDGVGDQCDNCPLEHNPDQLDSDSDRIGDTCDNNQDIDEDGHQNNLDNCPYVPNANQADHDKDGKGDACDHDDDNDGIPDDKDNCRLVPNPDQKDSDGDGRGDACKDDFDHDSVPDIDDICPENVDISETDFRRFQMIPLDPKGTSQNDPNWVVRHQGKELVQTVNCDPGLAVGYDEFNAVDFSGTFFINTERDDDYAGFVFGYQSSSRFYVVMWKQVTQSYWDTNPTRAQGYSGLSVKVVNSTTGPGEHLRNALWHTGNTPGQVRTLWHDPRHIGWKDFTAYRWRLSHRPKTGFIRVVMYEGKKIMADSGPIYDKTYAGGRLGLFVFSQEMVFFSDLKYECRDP

In the case of `CC[C@H](C)[C@@H]1NC(=O)[C@H](Cc2ccc3ccccc3c2)NC(=O)CSC[C@@H](C(N)=O)NC(=O)[C@H](CCc2ccccc2)NC(=O)[C@H](Cc2c[nH]c3ccccc23)NC(=O)[C@H](CCCCN)NC(=O)[C@H](C(C)C)NC(=O)[C@H](Cc2c[nH]c3ccccc23)NC(=O)[C@H](CC(N)=O)NC(=O)[C@H](CCCNC(=N)N)NC(=O)CNC(=O)[C@H](CO)NC1=O` [Compound 37] ({CH2CO}-[2Nal]ISGRNWVKW[hPhe]C-NH2; thioether N-12), the IC50 under setting [1] stood at 19.6 nM.

`CCCC[C@@H]1NC(=O)[C@H](Cc2c[nH]c3ccccc23)NC(=O)[C@H](CC(N)=O)NC(=O)[C@H](CCCNC(=N)N)NC(=O)CNC(=O)[C@H](CO)NC(=O)[C@H]([C@@H](C)CC)NC(=O)[C@H](Cc2ccc3ccccc3c2)NC(=O)CSC[C@@H](C(N)=O)NC(=O)[C@H](C(C)C)NC(=O)[C@H](Cc2c[nH]c3ccccc23)NC(=O)[C@H](CCCCN)NC1=O` [Compound 38] ({CH2CO}-[2Nal]ISGRNW[Nle]KWVC-NH2; thioether N-12): under setting [1], the IC50 came to 9.2 nM.

As to `CC[C@H](C)[C@@H]1NC(=O)[C@H](Cc2ccccc2)NC(=O)CSC[C@@H](C(N)=O)NC(=O)[C@H](C(C)C)NC(=O)[C@H](Cc2c[nH]c3ccccc23)NC(=O)[C@H](Cc2cncn2C)NC(=O)[C@H](C(C)C)NC(=O)[C@H](Cc2c[nH]c3ccccc23)NC(=O)[C@H](CC(N)=O)NC(=O)[C@H](CCCNC(=N)N)NC(=O)CNC(=O)[C@H](CO)NC1=O` [Compound 46] ({CH2CO}-FISGRNWV[His(π-Me)]WVC-NH2; thioether N-12), the IC50 under setting [1] worked out at 30.3 nM.

Regarding `CC[C@H](C)[C@@H]1NC(=O)[C@H](Cc2ccccc2)NC(=O)CSC[C@@H](C(N)=O)NC(=O)[C@H](C(C)C)NC(=O)[C@H](Cc2c[nH]c3ccccc23)NC(=O)[C@H](Cc2ccc(CN)cc2)NC(=O)[C@H](C(C)C)NC(=O)[C@H](Cc2c[nH]c3ccccc23)NC(=O)[C@H](CC(N)=O)NC(=O)[C@H](CCCNC(=N)N)NC(=O)CNC(=O)[C@H](CO)NC1=O` [Compound 47] ({CH2CO}-FISGRNWV[Phe(4-CH2NH2)]WVC-NH2; thioether N-12), under setting [1], the IC50 amounted to 16.7 nM.

For the molecule `CC(C)[C@@H]1NC(=O)[C@H](Cc2c[nH]c3ccccc23)NC(=O)[C@H](CCCCN)NC(=O)[C@H](C(C)C)NC(=O)[C@H](Cc2c[nH]c3ccccc23)NC(=O)[C@H](CC(N)=O)NC(=O)[C@H](CCCNC(=N)N)NC(=O)CNC(=O)[C@H](CO)NC(=O)[C@H](c2ccccc2)NC(=O)[C@H](Cc2ccc3ccccc3c2)NC(=O)CSC[C@@H](C(N)=O)NC1=O` [Compound 49] ({CH2CO}-[2Nal][Phg]SGRNWVKWVC-NH2; thioether N-12), under setting [1], the IC50 is 11.5 nM.

`CC[C@H](C)[C@@H]1NC(=O)[C@H](Cc2ccc3ccccc3c2)NC(=O)CSC[C@@H](C(N)=O)NC(=O)[C@H](C(C)(C)C)NC(=O)[C@H](Cc2c[nH]c3ccccc23)NC(=O)[C@H](CCCCN)NC(=O)[C@H](C(C)C)NC(=O)[C@H](Cc2c[nH]c3ccccc23)NC(=O)[C@H](CC(N)=O)NC(=O)[C@H](CCCNC(=N)N)NC(=O)CNC(=O)[C@H](CO)NC1=O` [Compound 53] ({CH2CO}-[2Nal]ISGRNWVKW[Tle]C-NH2; thioether N-12): under setting [1], the IC50 was determined as 15.9 nM.

`CC[C@H](C)[C@@H]1NC(=O)[C@H](Cc2ccc3ccccc3c2)NC(=O)CSCC[C@@H](C(N)=O)NC(=O)[C@H](C(C)C)NC(=O)[C@H](Cc2c[nH]c3ccccc23)NC(=O)[C@H](CCCCN)NC(=O)[C@H](C(C)C)NC(=O)[C@H](Cc2c[nH]c3ccccc23)NC(=O)[C@H](CC(N)=O)NC(=O)[C@H](CCCNC(=N)N)NC(=O)CNC(=O)[C@H](CO)NC1=O` [Compound 54] ({CH2CO}-[2Nal]ISGRNWVKWV[hCys]-NH2; thioether N-12): under setting [1], the IC50 is 19.5 nM.

Turning to `CCCC[C@@H]1NC(=O)[C@H](Cc2c[nH]c3ccccc23)NC(=O)[C@H](CC(=O)O)NC(=O)[C@H](CCCCN)NC(=O)CNC(=O)[C@H](CO)NC(=O)[C@H]([C@@H](C)CC)NC(=O)[C@H](Cc2ccc3ccccc3c2)NC(=O)CSC[C@@H](C(N)=O)NC(=O)[C@H](C(C)C)NC(=O)[C@H](Cc2c[nH]c3ccccc23)NC(=O)[C@H](CCCCN)NC1=O` [Compound 57] ({CH2CO}-[2Nal]ISGKDW[Nle]KWVC-NH2; thioether N-12), under setting [1], the IC50 is 15.6 nM.

As for `CCCC[C@@H]1NC(=O)[C@H](Cc2c[nH]c3ccccc23)NC(=O)[C@H](CC(N)=O)NC(=O)[C@H](Cc2c[nH]cn2)NC(=O)CNC(=O)[C@H](CO)NC(=O)[C@H]([C@@H](C)CC)NC(=O)[C@H](Cc2ccc3ccccc3c2)NC(=O)CSC[C@@H](C(N)=O)NC(=O)[C@H](C(C)C)NC(=O)[C@H](Cc2c[nH]c3ccccc23)NC(=O)[C@H](CCCCN)NC1=O` [Compound 59] ({CH2CO}-[2Nal]ISGHNW[Nle]KWVC-NH2; thioether N-12), the IC50 under setting [1] turned out to be 20.7 nM.

Regarding `CCCC[C@@H]1NC(=O)[C@H](Cc2c[nH]c3ccccc23)NC(=O)[C@H](CC(=O)O)NC(=O)[C@@H]2CCCN2C(=O)CNC(=O)[C@H](CO)NC(=O)[C@H]([C@@H](C)CC)NC(=O)[C@H](Cc2ccc3ccccc3c2)NC(=O)CSC[C@@H](C(N)=O)NC(=O)[C@H](C(C)C)NC(=O)[C@H](Cc2c[nH]c3ccccc23)NC(=O)[C@H](CCCCN)NC1=O` [Compound 68] ({CH2CO}-[2Nal]ISGPDW[Nle]KWVC-NH2; thioether N-12), the IC50 under setting [1] is 28.1 nM.

Consider `CCCC[C@@H]1NC(=O)[C@H](Cc2c[nH]c3ccccc23)NC(=O)[C@H](CC(=O)O)NC(=O)[C@H](CCS(C)(=O)=O)NC(=O)CNC(=O)[C@H](CO)NC(=O)[C@H]([C@@H](C)CC)NC(=O)[C@H](Cc2ccc3ccccc3c2)NC(=O)CSC[C@@H](C(N)=O)NC(=O)[C@H](C(C)C)NC(=O)[C@H](Cc2c[nH]c3ccccc23)NC(=O)[C@H](CCCCN)NC1=O` [Compound 71] ({CH2CO}-[2Nal]ISG[Met(O2)]DW[Nle]KWVC-NH2; thioether N-12), for which, under setting [1], the IC50 is 17.1 nM.

On to `CCCC[C@@H]1NC(=O)[C@H](Cc2c[nH]c3ccccc23)NC(=O)[C@H](CC(=O)O)NC(=O)[C@H](CCCCNC(N)=O)NC(=O)CNC(=O)[C@H](CO)NC(=O)[C@H]([C@@H](C)CC)NC(=O)[C@H](Cc2ccc3ccccc3c2)NC(=O)CSC[C@@H](C(N)=O)NC(=O)[C@H](C(C)C)NC(=O)[C@H](Cc2c[nH]c3ccccc23)NC(=O)[C@H](CCCCN)NC1=O` [Compound 74] ({CH2CO}-[2Nal]ISG[hCit]DW[Nle]KWVC-NH2; thioether N-12), for which the IC50 under setting [1] was 20.7 nM.

Turning to `CCCC[C@@H]1NC(=O)[C@H](Cc2c[nH]c3ccccc23)NC(=O)[C@H](CC(=O)O)NC(=O)[C@H](CCCNC(=N)N)NC(=O)CNC(=O)[C@H](CO)NC(=O)[C@H]([C@@H](C)CC)NC(=O)[C@H](Cc2ccc3ccccc3c2)NC(=O)CNC(=O)CSC[C@@H](C(N)=O)NC(=O)[C@H](C(C)C)NC(=O)[C@H](Cc2c[nH]c3ccccc23)NC(=O)[C@H](CCCCN)NC1=O` [Compound 75] ({CH2CO}-G[2Nal]ISGRDW[Nle]KWVC-NH2; thioether N-13), under setting [1], the IC50 came to 16.1 nM.

Regarding `CCCC[C@@H]1NC(=O)[C@H](Cc2c[nH]c3ccccc23)NC(=O)[C@H](CC(=O)O)NC(=O)[C@H](CCCNC(=N)N)NC(=O)CNC(=O)[C@H](CO)NC(=O)[C@H]([C@@H](C)CC)NC(=O)[C@H](Cc2ccc3ccccc3c2)NC(=O)[C@H](C)NC(=O)CSC[C@@H](C(N)=O)NC(=O)[C@H](C(C)C)NC(=O)[C@H](Cc2c[nH]c3ccccc23)NC(=O)[C@H](CCCCN)NC1=O` [Compound 80] ({CH2CO}-A[2Nal]ISGRDW[Nle]KWVC-NH2; thioether N-13), for the setting “HUVEC adhesion to TSP1-coated plate, read-out: cell adhesion inhibition (Table 4)”, the IC50 came to 11.5 nM.
